Data set [1] deals with DENV2. It is filed as cell-based, dengue virus. As to conditions: read-out: EC50, DENV2 infection.
Another data set has as its system phospho-AP2M1 (T156). It is filed as cell-based.
For data set [2], the system named is DENV. It is filed as cell-based, dengue virus. As to conditions: read-out: EC50, DENV infection in MDDC.
The subject of another data set is EBOV. Format: cell-based, Ebola virus. As to conditions: read-out: EC50, EBOV infection.
For another data set, the system named is VEEV (TC-83). Format: cell-based, Venezuelan equine encephalitis virus. As to conditions: read-out: EC50, VEEV (TC-83) infection.
Data set [3] deals with DENV. It is filed as cell-based. As to conditions: BIKE-inducible T-REx-293 cells, doxycycline induction, 72 hours treatment.
For data set [4], the system named is primary human monocyte derived dendritic cells (MDDC).
In another data set the test system is ERK2. As to conditions: read-out: IC50, ERK2; cited from earlier work.
In another data set the test system is TAK1. As to conditions: read-out: IC50, TAK1; cited from earlier work.
Another data set has as its target BIKE. As to conditions: cited from earlier work.
For a further data set, the target named is GAK. As to conditions: at 10 μM; cited from earlier work.
Another data set concerns the target AAK1. As to conditions: at 10 μM; cited from earlier work.
Data set [5] relates to DENV2. Format: cell-based, dengue virus.

Regarding `COc1cc(O)c2c(c1)/C=C/C[C@H](O)[C@H](O)C(=O)/C=C\C[C@H](C)OC2=O` [5Z-7-oxozeaenol], the half-maximal effective concentration (EC50) – broadly, the concentration at which the effect is half-maximal – came out at 2.47 µM in the data set on DENV2 [1], 0.54 µM in the data set with DENV [2], 4.09 µM in the data set on EBOV and 2.6 µM with VEEV (TC-83). Also, the “effect on AP2M1 phosphorylation” value in the data set on phospho-AP2M1 (T156) is listed as “dramatic reduction in AP2M1 phosphorylation”. In addition, the “effect on phospho-AP2M1 level at 10 μM” value in the data set on phospho-AP2M1 (T156) is listed as “significant reduction”. The “DENV infection upon BIKE expression in drug-treated cells” value with DENV [3] is on record as “partially restored”. Moreover, in [4], the midpoint of cytotoxicity, the CC50, lay at 5.49 µM. Besides, the “cellular toxicity in the EBOV assay” value in the data set with Huh7 cells is reported as “no apparent cellular toxicity within the concentration range tested”. The IC50 (usually the concentration that inhibits the measured activity by half) is 0.08 µM in the data set with ERK2, 0.008 µM in the data set with TAK1 and 0.0038 µM with BIKE (read-out: IC50 value for BIKE inhibition or binding (Discussion)). The “KINOMEscan binding, BIKE” value at BIKE (at 10 μM) was 3.8 % of control. Besides, on GAK, the “KINOMEscan binding, GAK” value was 10 % of control. At AAK1, the “KINOMEscan binding, AAK1” value is recorded as 13 % of control.

`C[C@@H]1C[C@@H]([C@H](O)CC2CC(=O)NC(=O)C2)C(=O)[C@@H](C)C1` [cycloheximide]: the “effect on viral infection at 6 hours postinfection” value in the data set with DENV2 [5] was “suppressed viral infection”.

(Values after paper PMC7879702 (Antiviral research, 2020).)
